Where “and” joins values, the source holds several entries; their conditions need not be identical. Equal entries are not always repeated.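 Compound exposure: 48 hours, 5 concentrations, 96-well plates. Here, GI50 denotes the concentration required for 50% inhibition of growth. Definition used: TGI = concentration required for complete inhibition of growth.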
Experiments:
Experiment in all cases: NCI tumour cell line growth inhibition, 48 h
MDA-N = test system: MDA-N
HOP-18 NSCLC = test system: HOP-18 NSCLC
LXFL 529 NSCLC = test system: LXFL 529 NSCLC
DMS 114 small cell lung = test system: DMS 114 small cell lung
KM20L2 colon = test system: KM20L2 colon
DMS 273 small cell lung = test system: DMS 273 small cell lung
RXF-631 renal = test system: RXF-631 renal
SNB-78 CNS = test system: SNB-78 CNS
XF 498 CNS = test system: XF 498 CNS
P388/ADR leukemia = test system: P388/ADR leukemia
P388 leukemia = test system: P388 leukemia
SN12K1 renal = test system: SN12K1 renal

Row | Structure (SMILES) | TGI (MDA-N) | TGI (HOP-18 NSCLC) | TGI (LXFL 529 NSCLC) | TGI (DMS 114 small cell lung) | TGI (KM20L2 colon) | TGI (DMS 273 small cell lung) | TGI (RXF-631 renal) | TGI (SNB-78 CNS) | TGI (XF 498 CNS) | further results
1 | O=C(O)c1c(Br)c(Br)c(Br)c(Br)c1C1c2ccc(O)cc2Oc2cc(O)ccc21 | > 100 µM |  |  |  |  |  |  |  |  | 
2 | COc1cc2ccnc3c(=C(SC)SC)c(=O)c(c1OC)c23 |  | 26.7 µM | 16.5 µM | 36 µM | 32.6 µM | 30.4 µM | 28.9 µM |  |  | 
3 | CC1OC(CC(=O)O)CC2=C1C(=O)c1c(O)cccc1C2=O (centres undefined) | 0.518 µM | 3.88 µM | 0.218 µM | 0.288 µM | 1.2 µM | 0.594 µM | 3.01 µM | 0.383 µM | 0.324 µM | 
4 | O=C(CCCN1CCC(C(O)c2ccc(F)cc2)CC1)c1ccc(F)cc1 (centres undefined) | 116 µM | 142 µM |  | 108 µM | 96 µM | 118 µM |  | 123 µM | 15.1 µM | TGI (P388/ADR leukemia): 141 µM; TGI (P388 leukemia): 119 µM; TGI (SN12K1 renal): 108 µM
5 | O=C(NCCCl)SCCO |  |  | > 100 µM | > 100 µM | > 100 µM | > 100 µM | > 100 µM | > 100 µM |  | 
6 | CC1(C)O[C@@H]2C[C@H]3[C@@H]4C[C@H](F)C5=CC(=O)C=C[C@]5(C)[C@@]4(F)[C@@H](O)C[C@]3(C)[C@]2(C(=O)CO)O1 | > 100 µM |  |  |  |  |  |  |  |  | 
7 | NC(=O)NC1C(C(=O)O)N(Cc2ccccc2)C(=O)N1Cc1ccccc1 (centres undefined) |  |  | > 100 µM | > 100 µM | > 100 µM |  |  | > 100 µM | > 100 µM | 
8 | CCC1(CN(C)C)CC/C(=C\c2ccc(OC)c(OC)c2)C1=O (centres undefined) |  | > 100 µM | > 100 µM | > 100 µM | > 100 µM | > 100 µM | > 100 µM | > 100 µM | > 100 µM | 
9 | COC1CC(N)C(O)C(C)O1 (centres undefined) | > 100 µM |  |  |  |  |  |  |  |  | 
10 | N#CC1=C(O)NC(O)=C(C#N)C1c1ccc(C2C(C#N)=C(O)NC(O)=C2C#N)cc1 |  | > 100 µM | > 100 µM | > 100 µM | > 100 µM | > 100 µM | > 100 µM | > 100 µM | > 100 µM | 
11 | CC(C)(C)N/N=C(\C(=O)NC1=C(Cl)C(=O)c2ccccc2C1=O)C1C=CCS1(=O)=O (centres undefined) | 6.33 µM |  |  |  |  |  |  |  |  | 
12 | CC(=O)NC(C=O)C(O[C@H](C)C(=O)NC(C)C(=O)NC(CCC(N)=O)C(=O)OCc1ccccc1)C(O)C(O)COC(=O)CCNc1c2ccccc2nc2cccc([N+](=O)[O-])c12 (some centres undefined) |  | > 100 µM | 3.58 µM | 10.7 µM | 5.58 µM | 12 µM |  | 14.4 µM | 3.71 µM | 
13 | O=c1[nH]cnc2c(COCCO)c[nH]c12 |  | > 100 µM | > 100 µM | > 100 µM | > 100 µM | > 100 µM | > 100 µM | > 100 µM | > 100 µM | 
14 | NC(=O)CC(N=Cc1nc(-c2ccccc2)oc1O)C(=O)O (centres undefined) |  | > 100 µM | > 100 µM | > 100 µM | > 100 µM | > 100 µM | > 100 µM | > 100 µM |  | 
15 | COc1cccc(SSc2cccc(OC)c2C(=O)O)c1C(=O)O |  | > 100 µM | > 100 µM | > 100 µM | > 100 µM | > 100 µM | > 100 µM | > 100 µM | > 100 µM | 
16 | Cc1ccc(C2NC(=O)c3ccccc3N2)c(C)c1 (centres undefined) | 0.701 µM |  |  |  |  |  |  |  |  | 
17 | CC(=O)OC1=CC2(OC(C)=O)CC(C)(C)C1C1C(=O)C=CC(=O)C12 (centres undefined) | > 100 µM |  | > 100 µM | > 100 µM | > 100 µM | > 100 µM | > 100 µM | > 100 µM | > 100 µM | 
18 | N#Cc1cccc(C=NC23CC4CC(CC(C4)C2)C3)c1 |  |  |  | > 100 µM | > 100 µM | > 100 µM |  | > 100 µM |  | 
19 | CC1=Nc2c([nH]c(=S)[nH]c2=O)NC(c2c(Cl)cccc2Cl)C1 (centres undefined) | 1.99 µM | 30.2 µM | 10.2 µM | 13.8 µM | 13.6 µM | 4.4 µM | 22.5 µM | 25 µM | 10.9 µM | 
20 | CCN1C(=NCCO)NS(=O)(=O)c2ccccc21 | > 100 µM |  |  |  |  |  |  |  |  | 
21 | Cn1cc(C(=O)c2ccccc2)cc(C(=O)c2ccccc2)c1=O |  |  | > 100 µM | > 100 µM | > 100 µM | > 100 µM | > 100 µM | > 100 µM | > 100 µM | 

Row | Structure (SMILES) | TGI (MDA-N) | TGI (HOP-18 NSCLC) | TGI (LXFL 529 NSCLC) | TGI (DMS 114 small cell lung) | TGI (KM20L2 colon) | TGI (DMS 273 small cell lung) | TGI (RXF-631 renal) | TGI (SNB-78 CNS) | TGI (XF 498 CNS) | further results
22 | CN(C)c1cccc(F)c1C(=O)NC(=O)Nc1ccc(Cl)cc1 | 0.762 µM |  |  |  |  |  |  |  |  | 
23 | Cc1ccc(NC(=O)CCc2n[nH]c(=S)o2)cc1 |  | > 100 µM | > 100 µM | > 100 µM | > 100 µM | > 100 µM | > 100 µM | > 100 µM | > 100 µM | 
24 | COCCOCCOCCOc1cccc2c1C(=O)c1cccc(OCCOCCOCCOC)c1C2=O |  | > 100 µM | > 100 µM | > 100 µM | > 100 µM | > 100 µM | > 100 µM | > 100 µM | > 100 µM | 
25 | O=C(CC1C=Cc2ccccc2N1C(=O)c1ccccc1)c1ccccc1 (centres undefined) | 39 µM |  |  |  |  |  |  |  |  | 
26 | COc1cc2oc3c(c(=O)c2c(O)c1/C=C/C(C)C)C(C=C(C)C)Oc1cc(O)ccc1-3 (centres undefined) | 31.9 µM |  |  |  |  |  |  |  |  | 
27 | CC(=O)c1ccc(NC(=O)COC(=O)c2cccc3c(=O)c4ccccc4[nH]c23)cc1 |  | > 100 µM | > 100 µM | > 100 µM | > 100 µM |  | > 100 µM | > 100 µM | 55.5 µM | 
28 | COc1ccc(NC(=O)CC(=O)n2nc(C)c(N=Nc3ccccc3C(=O)O)c2C)cc1 |  |  | > 100 µM | > 100 µM | > 100 µM | > 100 µM |  | > 100 µM | > 100 µM | 
29 | Cc1ccc(S(=O)(=O)N/N=C/C(C)C)cc1 |  | > 100 µM | > 100 µM | > 100 µM | > 100 µM | > 100 µM | > 100 µM | > 100 µM |  | 
30 | C=C(C(=C)P(=S)(C(C)C)C(C)C)P(=S)(C(C)C)C(C)C |  |  | > 100 µM | > 100 µM | > 100 µM | > 100 µM | > 100 µM | > 100 µM | > 100 µM | 
31 | CCCCCCCCCCCc1c(O)c(=O)c2c(oc3c(=O)c(CCCCCCCCCCC)c(O)c(=O)c3n2-c2ccc(N(C)C)cc2)c1=O |  | 42.9 µM | 47.2 µM | 57.7 µM | 38.5 µM | 56.3 µM |  | > 100 µM | 37.9 µM | 
32 | OCCN(CCO)c1cccc(N(CCO)CCO)n1 |  |  | > 100 µM | > 100 µM | > 100 µM | > 100 µM | > 100 µM | > 100 µM | > 100 µM | 
33 | COc1ccc2c(c1)-c1nn(CCCN(C)C)c3ccc([N+](=O)[O-])c(c13)N2 | 2.53 µM and 3.61 µM | 13.6 µM and 21 µM |  | 4.24 µM and 13.8 µM | 4.98 µM and 10.9 µM | 1.86 µM and 4.99 µM |  |  | 2.34 µM and 16.2 µM | GI50 (DMS 114 small cell lung): 0.202 µM and 0.543 µM; GI50 (KM20L2 colon): 0.0855 µM and 0.49 µM; TGI (P388/ADR leukemia): 0.925 µM; TGI (P388 leukemia): 0.666 µM; GI50 (XF 498 CNS): 0.443 µM and 2.91 µM; GI50 (MDA-N): 0.159 µM and 0.503 µM; TGI (SN12K1 renal): 0.682 µM
34 | CC([O-])=C1C(=O)c2ccccc2C1=O.CC([O-])=C1C(=O)c2ccccc2C1=O.CC[O-].CC[O-].[Ti+4] |  | > 100 µM | > 100 µM | > 100 µM | > 100 µM | > 100 µM | > 100 µM |  |  | GI50 (HOP-18 NSCLC): > 100 µM; GI50 (LXFL 529 NSCLC): 87.5 µM; GI50 (DMS 114 small cell lung): > 100 µM; GI50 (KM20L2 colon): > 100 µM; GI50 (DMS 273 small cell lung): > 100 µM; GI50 (RXF-631 renal): > 100 µM
35 | CCc1nc(N)nc(N)c1-c1ccc(Cl)c(N=[N+]=[N-])c1 | 53.9 µM and > 84.9 µM | > 100 µM | > 100 µM |  | > 100 µM |  |  | > 100 µM | 88.1 µM | GI50 (MDA-N): 0.812 µM and 5.03 µM
36 | COC(=O)Cc1cc(=O)[nH]c2c1C(=O)CCC2 |  | > 100 µM | > 100 µM |  |  |  |  |  | > 100 µM | 
37 | O=c1c2cc3c(cc2c2cccc4c2n1CCC4)OCO3 |  | > 100 µM | > 100 µM |  | > 100 µM | > 100 µM |  | > 100 µM |  | 
38 | CC(=O)Nc1n[n+]([O-])c2cc(C)ccc2[n+]1[O-] | 14.9 µM |  |  |  |  |  |  |  |  | 
39 | COc1cccc(N2C(=O)C3C4C=C5c6ccccc6N(c6ccccc6)C5(C3C2=O)[C@H]2C(=O)N(c3cccc(OC)c3)C(=O)[C@@H]42)c1 (some centres undefined) |  | > 100 µM | > 100 µM | > 100 µM | > 100 µM | > 100 µM | > 100 µM | > 100 µM | > 100 µM | 
40 | COc1ccc(C(=O)C#Cc2c[nH]c(=O)[nH]c2=O)cc1 |  | > 50.1 µM | 12.2 µM | 46.7 µM | 22.8 µM | 30.4 µM | 34.1 µM | 37.9 µM |  | 
41 | Cc1cc(Cl)ccc1C(=O)c1ccc2ccccc2c1C(=O)O | > 100 µM |  |  |  |  |  |  |  |  | 
42 | CCC(C)C(=O)OCC(=O)c1ccc(-c2ccccc2)cc1 (centres undefined) | > 100 µM |  |  |  |  |  |  |  |  | 

Reference: PubChem BioAssay (NCI)
